Data set [1] can be described thus: Solubility Characteristics of COPs. In kind it is physicochemical. The procedure:
All COPs were synthesized by solid phase fmoc chemistry at research scale to allow determination of IgE binding. […] Peptides were resuspended either in water at 2 mg/ml or at 10 to 20 mg per ml in DMSO (see Table 1) and frozen in aliquots.

The test system of data set [2] is IgE of sera of house dust mite allergic patients binding to nDer p 1. Put plainly: Competition ELISA on Der p 1 coated plates. Details: species or system human. Particulars: for effect of denaturing salts on IgE binding (Der p 1 competition ELISA): denaturing salts incl. guanidinium chloride or urea, 30 min pre-incubation with 1M guanidinium chloride; for IgE binding in competition ELISA (Der p 1): sera from patients allergic to house dust mites, COPs 10^−5 to 10^−10 M. The procedure:
Purified Der p 1 or Der p 2 at 1.0 μg/ml were coated overnight on 96-well Nunc Maxisorp® immunoplates (Thermo Fisher Scientific Inc., Wohlen, Switzerland). After blocking with 1% BSA, either twenty-fold, thirty-fold or forty-fold up to 200-fold dilutions of patient serum were added depending on specific IgE content. […] Sera of allergic patients were obtained from US and Europe (PlasmaLab International, Everett, Wash., USA and Biomnis, Lyon, France) respectively) selected for positive CAP for D. pteronyssinus and clear signal over background and used to test for competition with the peptides. Serial dilutions of each set of COPs, namely for Der p 1 Set A, B, C or D and for Der p 2 mixes D, E or F at concentrations ranging from 10^−5 to 10^−10 M were pre-incubated with selected serums for 15 min. on ice.
(In general: In an ELISA, binding on a coated surface is turned into a signal by an enzyme label.)

This is an account of results in US20150050301A1, “Contiguous Overlapping Peptides for Treatment of House Dust Mites Allergy” (ANERGIS S.A., priority 2013, published 2015).

Like-named read-outs stand apart in the source and are kept apart here. Residues, ends and D or L forms follow the SMILES beside them. No end group written: not given here.

In the case of `CC[C@H](C)[C@H](NC(=O)CNC(=O)[C@H](Cc1ccccc1)NC(=O)[C@H](CCCNC(=N)N)NC(=O)[C@H](CCC(N)=O)NC(=O)[C@H](C)NC(=O)[C@H](CC(N)=O)NC(=O)[C@@H]1CCCN1C(=O)[C@H](CCCNC(=N)N)NC(=O)[C@H](CCCNC(=N)N)NC(=O)[C@H](CS)NC(=O)[C@H](CO)NC(=O)[C@H](CCC(N)=O)NC(=O)[C@H](CCC(=O)O)NC(=O)[C@H](CCCNC(=N)N)NC(=O)[C@H](C)N)C(=O)N[C@@H](CO)C(=O)N[C@@H](CC(N)=O)C(=O)N[C@@H](Cc1ccc(O)cc1)C(=O)N[C@@H](CS)C(=O)N[C@@H](CCC(N)=O)C(=O)N[C@H](C(=O)N[C@@H](Cc1ccc(O)cc1)C(=O)N1CCC[C@H]1C(=O)N1CCC[C@H]1C(=O)N[C@@H](CC(N)=O)C(=O)N[C@H](C(=O)N[C@@H](CC(N)=O)C(=O)N[C@@H](CCCCN)C(=O)N[C@H](C(=O)N[C@@H](CCCNC(=N)N)C(=O)N[C@@H](CCC(=O)O)C(=O)O)[C@@H](C)CC)C(C)C)[C@@H](C)CC` [AllerDM1.5a] (H-AREQSCRRPNAQRFGISNYCQIYPPNVNKIRE-OH; N-terminus and C-terminus assumed), the solubility in words entry in data set [1] is recorded as “solubility in water”. In addition, in data set [1] (Solvent H2O), the Conc. stood at 4.7 mg/mL.

As for `CC[C@H](C)[C@H](NC(=O)CNC(=O)[C@H](Cc1ccccc1)NC(=O)[C@H](CCCNC(=N)N)NC(=O)[C@H](CCC(N)=O)NC(=O)[C@H](C)NC(=O)[C@H](CC(N)=O)NC(=O)[C@@H]1CCCN1C(=O)[C@H](CCCNC(=N)N)NC(=O)[C@H](CCCNC(=N)N)NC(=O)[C@H](CS)NC(=O)[C@H](CO)NC(=O)[C@H](CCC(N)=O)NC(=O)[C@H](CCC(=O)O)NC(=O)[C@H](CCCNC(=N)N)NC(=O)[C@H](C)NC(=O)[C@@H](NC(=O)[C@H](Cc1ccc(O)cc1)NC(=O)[C@@H](N)CCCNC(=N)N)C(C)C)C(=O)N[C@@H](CO)C(=O)N[C@@H](CC(N)=O)C(=O)N[C@@H](Cc1ccc(O)cc1)C(=O)N[C@@H](CS)C(=O)N[C@@H](CCC(N)=O)C(=O)N[C@H](C(=O)N[C@@H](Cc1ccc(O)cc1)C(=O)N1CCC[C@H]1C(=O)N1CCC[C@H]1C(=O)N[C@@H](CC(N)=O)C(=O)N[C@H](C(=O)N[C@@H](CC(N)=O)C(=O)N[C@@H](CCCCN)C(=O)N[C@H](C(=O)N[C@@H](CCCNC(=N)N)C(=O)N[C@@H](CCC(=O)O)C(=O)O)[C@@H](C)CC)C(C)C)[C@@H](C)CC` [AllerDM1.54] (H-RYVAREQSCRRPNAQRFGISNYCQIYPPNVNKIRE-OH; N-terminus and C-terminus assumed), in data set [1], the solubility in words result is on record as “solubility in water”. Also, the Conc. in data set [1] (Solvent H2O) was 2.0 mg/mL. The molecule `CC[C@H](C)[C@H](NC(=O)[C@H](CCC(=O)O)NC(=O)[C@H](Cc1c[nH]cn1)NC(=O)[C@H](CC(N)=O)NC(=O)[C@H](C)NC(=O)[C@H](CS)NC(=O)[C@H](CC(=O)O)NC(=O)[C@H](CCCCN)NC(=O)[C@@H](NC(=O)[C@H](CC(=O)O)NC(=O)[C@@H](NC(=O)[C@H](CCC(N)=O)NC(=O)[C@@H](N)CC(=O)O)C(C)C)C(C)C)C(=O)N[C@@H](CCCCN)C(=O)N[C@@H](CCCCN)C(=O)N[C@H](C(=O)N[C@@H](CC(C)C)C(=O)N[C@H](C(=O)N1CCC[C@H]1C(=O)NCC(=O)N[C@@H](CS)C(=O)N[C@@H](Cc1c[nH]cn1)C(=O)NCC(=O)N[C@@H](CO)C(=O)N[C@@H](CCC(=O)O)C(=O)O)C(C)C)C(C)C` [AllerDM2.3] (H-DQVDVKDCANHEIKKVLVPGCHGSE-OH; N-terminus and C-terminus assumed) registered a Conc. in data set [1] (Solvent H2O) of 3.0 mg/mL. `CC[C@H](C)[C@H](NC(=O)[C@H](CCC(=O)O)NC(=O)[C@H](Cc1c[nH]cn1)NC(=O)[C@H](CC(N)=O)NC(=O)[C@H](C)NC(=O)[C@H](CS)NC(=O)[C@H](CC(=O)O)NC(=O)[C@H](CCCCN)NC(=O)[C@@H](NC(=O)[C@H](CC(=O)O)NC(=O)[C@@H](NC(=O)[C@H](CCC(N)=O)NC(=O)[C@@H](N)CC(=O)O)C(C)C)C(C)C)C(=O)N[C@@H](CCCCN)C(=O)N[C@@H](CCCCN)C(=O)N[C@H](C(=O)N[C@@H](CC(C)C)C(=O)N[C@H](C(=O)N1CCC[C@H]1C(=O)NCC(=O)N[C@@H](CS)C(=O)N[C@@H](Cc1c[nH]cn1)C(=O)NCC(=O)N[C@@H](CO)C(=O)N[C@@H](CCC(=O)O)C(=O)N1CCC[C@H]1C(=O)N[C@@H](CS)C(=O)N[C@H](C(=O)N[C@H](C(=O)N[C@@H](Cc1c[nH]cn1)C(=O)N[C@@H](CCCNC(=N)N)C(=O)O)[C@@H](C)CC)[C@@H](C)CC)C(C)C)C(C)C` [AllerDM2.6] (H-DQVDVKDCANHEIKKVLVPGCHGSEPCIIHR-OH; N-terminus and C-terminus assumed) displayed a Conc. in data set [1] (Solvent H2O) of 3.0 mg/mL.

Consider “ASQHGCHGDTIPRGIEYIQHNGVVQESYYRYVAREQS [AllerDM1.53]”, for which, in data set [1], the solubility in words result is given as “solubility in water”. Moreover, the Conc. in data set [1] (Solvent H2O) stood at 4.0 mg/mL. For the molecule “ASQHGCHGDTIPRGIEYIQHNGVVQESYYRYVAREQSCRRPNAQRFGISNYCQIYPPNVNKIRE [AllerDM1.52]”, in data set [2], the “effect of denaturing salts on IgE binding (Der p 1 competition ELISA)” value is on record as “strongly diminished IgE binding” and the “IgE binding in competition ELISA (Der p 1)” value (“IgE binding … (Der p 1)” below) is “still bound IgE”. Further, in data set [1], the Conc. amounted to 2.3 mg/mL and the solubility in words result was “solubility in water”. Molecule “HGSEPCIIHRGKPFQLEALFEANQNSKTAKIEIKASIDGLEVDVPGIDPNACHYMK (cysteines drawn unpaired) [AllerDM2.4]” displayed a Conc. in data set [1] of 4.2 mg/mL. Molecule “HYMKCPLVKGQQYDIKYTWNVPKIAPKSENVVVTVKVLGDNGVLACAIATHAKIRD (cysteines drawn unpaired) [AllerDM2.5]” displayed a Conc. in data set [1] (Solvent H2O) of 1.5 mg/mL. On the same count and under the same terms, as for KVLGDNGVLACAIATHAKIRD [AllerDM2.9], the figure is 1.0 mg/mL; as for “KYTWNVPKIAPKSENVVVTVKVLGDNGVLACAIATHAKIRD [AllerDM2.8]”, 3.5 mg/mL. Consider “LAEQELVDCASQHGCHGDTIPRGIEYIQHNGVVQESYYRYVAREQSCRRPNAQRFGISNYCQIYPPNVNKIRE [AllerDM1.5]”, for which the “IgE binding … (Der p 1)” value in data set [2] is given as “responsible for the reactivity”. Moreover, in data set [1], the Conc. was 1.7 mg/mL and the solubility in words result is “solubility in water”. “PNVNKIREALAQTHSAIAVIIGIKDLDAFRHYDGR [AllerDM1.63]” returned a Conc. in data set [1] (Solvent H2O) of 2.0 mg/mL. Consider “PNVNKIREALAQTHSAIAVIIGIKDLDAFRHYDGRTIIQRDNGYQPNYHAVNIVGYSNAQGVD [AllerDM1.62]”, for which, in data set [2], the “effect of denaturing salts on IgE binding (Der p 1 competition ELISA)” value is “strongly diminished IgE binding” and the “IgE binding … (Der p 1)” value is listed as “residual IgE binding”. Further, the Conc. in data set [1] worked out at 2.5 mg/mL.

In the case of “PNVNKIREALAQTHSAIAVIIGIKDLDAFRHYDGRTIIQRDNGYQPNYHAVNIVGYSNAQGVDYWIVRNSWDT [AllerDM1.6]”, the “IgE binding … (Der p 1)” value in data set [2] is recorded as “responsible for the reactivity”. Moreover, the Conc. in data set [1] was determined as 0.8 mg/mL. In the case of “RHYDGRTIIQRDNGYQPNYHAVNIVGYSNAQGVD [AllerDM1.64]”, the Conc. in data set [1] (Solvent H2O) was 4.0 mg/mL. Consider “SIDGLEVDVPGIDPNACHYMKCPLVKGQQYDIKYTWNVPKIAPKSENVVVTVKVLGD (cysteines drawn unpaired) [AllerDM2.10]”, for which the Conc. in data set [1] (H2O after acidification with HCl and neutralization with NaOH) stood at 2.0 mg/mL.

B1: TNACSINGNAPAEIDLRQMRTVTPIRMQGGCGSCWAFSGVAATESAYLAYRNQSLDLAEQELVDCASQHG (peptide, listed as Dermatophagoides pteronyssinus)
chain: TNACSINGNAPAEIDLRQMRTVTPIRMQGGCGSCWAFSGVAATESAYLAYRNQSLDLAEQELVDCASQHG
notes: Der p 1 contiguous overlapping peptide, 70AA, T99 to G168
Take B1: the “IgE binding … (Der p 1)” value in data set [2] is given as “no detectable IgE binding”. In data set [1] (Solvent 7M guanidinium chloride), the Conc. amounted to 30.0 mg/mL.

B2: TNACSINGNAPAEIDLRQMRTVTPIRMQGGCGSCWAFSGVAATESAYLAYRNQSLDLAEQELVDCA (peptide, listed as Dermatophagoides pteronyssinus)
chain: TNACSINGNAPAEIDLRQMRTVTPIRMQGGCGSCWAFSGVAATESAYLAYRNQSLDLAEQELVDCA
notes: Der p 1 contiguous overlapping peptide, 66AA
Take B2: in data set [2], the “IgE binding … (Der p 1)” value is reported as “no detectable IgE binding”. The “solubility remark” value in data set [1] (1.2: when added to Citrate buffer or PBS at 2 × 10^−5M) is listed as “NaOH) Difficult pH8”. Further, the Conc. in data set [1] (H2O, pH adjusted with HCl and NaOH) was found to be 1.0 mg/mL.

B3: AIAVIIGIKDLDAFRHYDGRTIIQRDNGYQPNYHAVNIVGYSNAQGVDYWIVRNSWDTNWGDNGYGYFAANIDLMMIEEYPYVVIL (peptide)
peptide: AIAVIIGIKDLDAFRHYDGRTIIQRDNGYQPNYHAVNIVGYSNAQGVDYWIVRNSWDTNWGDNGYGYFAANIDLMMIEEYPYVVIL
For the molecule B3, the “IgE binding … (Der p 1)” value in data set [2] is recorded as “Residual IgE binding was observed”. The same molecule registered a Conc. in data set [1] of 0.5 mg/mL.

B4: SQHGCHGDTIPRGIEYIQHNGVVQESYYRYVAREQSCRRPNAQRFGISNYCQIYPPNVNKIREALAQTHSAIAVIIGIKDLDAFRH (peptide)
peptide: SQHGCHGDTIPRGIEYIQHNGVVQESYYRYVAREQSCRRPNAQRFGISNYCQIYPPNVNKIREALAQTHSAIAVIIGIKDLDAFRH
B4: the “IgE binding … (Der p 1)” value in data set [2] was “Residual IgE binding was observed”. Moreover, the Conc. in data set [1] came out at 2.0 mg/mL.

B5: TNACSINGNAPAEIDLRQMRTVTPIRMQGGCGSCWAFSGVAATESAYLAYRNQSLDLAEQELVDCASQHGCHGDTIPRGIE (peptide, listed as Dermatophagoides pteronyssinus)
chain: TNACSINGNAPAEIDLRQMRTVTPIRMQGGCGSCWAFSGVAATESAYLAYRNQSLDLAEQELVDCASQHGCHGDTIPRGIE
notes: Der p 1 contiguous overlapping peptide, 81AA
Molecule B5 showed a Conc. in data set [1] (H2O after addition of HCl and NaOH and citrate buffer pH5.5) of 1.0 mg/mL.
